From PubChem BioAssay (NCI)
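Cells were grown in 96-well plates and exposed to each compound for 48 hours at five concentrations; endpoints were interpolated linearly between bracketing concentrations, or set to the highest concentration if not reached. Here, GI50 denotes the concentration required for 50% inhibition of growth. At the TGI there is no net growth.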

Legend:
Assay in all cases: NCI-60 cell line screen, 48 h
SW-620 colon = tested on: SW-620 colon
RPMI-8226 leukemia = tested on: RPMI-8226 leukemia
OVCAR-4 ovarian = tested on: OVCAR-4 ovarian
OVCAR-3 ovarian = tested on: OVCAR-3 ovarian
LOX IMVI melanoma = tested on: LOX IMVI melanoma
OVCAR-5 ovarian = tested on: OVCAR-5 ovarian
HCT-15 colon = tested on: HCT-15 colon
A498 renal = tested on: A498 renal
HOP-92 NSCLC = tested on: HOP-92 NSCLC
HCC-2998 colon = tested on: HCC-2998 colon
SF-295 CNS = tested on: SF-295 CNS
BT-549 breast = tested on: BT-549 breast
NCI-H226 lung = tested on: NCI-H226 lung
UACC-62 melanoma = tested on: UACC-62 melanoma
786-0 renal = tested on: 786-0 renal
UO-31 renal = tested on: UO-31 renal
NCI/ADR-RES ovarian = tested on: NCI/ADR-RES ovarian
HCT-116 colon = tested on: HCT-116 colon
RXF 393 renal = tested on: RXF 393 renal
SNB-19 CNS = tested on: SNB-19 CNS
KM12 colon = tested on: KM12 colon
SK-OV-3 ovarian = tested on: SK-OV-3 ovarian
T-47D breast = tested on: T-47D breast
NCI-H460 lung = tested on: NCI-H460 lung
PC-3 prostate = tested on: PC-3 prostate
SF-268 CNS = tested on: SF-268 CNS
CCRF-CEM leukemia = tested on: CCRF-CEM leukemia
HOP-62 NSCLC = tested on: HOP-62 NSCLC
U251 CNS = tested on: U251 CNS
ACHN renal = tested on: ACHN renal
OVCAR-8 ovarian = tested on: OVCAR-8 ovarian
COLO 205 colon = tested on: COLO 205 colon
SF-539 CNS = tested on: SF-539 CNS
DU-145 prostate = tested on: DU-145 prostate
HS 578T breast = tested on: HS 578T breast
HT29 colon = tested on: HT29 colon
UACC-257 melanoma = tested on: UACC-257 melanoma
EKVX NSCLC = tested on: EKVX NSCLC
SN12C renal = tested on: SN12C renal
SNB-75 CNS = tested on: SNB-75 CNS
NCI-H522 lung = tested on: NCI-H522 lung
K-562 leukemia = tested on: K-562 leukemia
NCI-H23 lung = tested on: NCI-H23 lung
SK-MEL-28 melanoma = tested on: SK-MEL-28 melanoma
M14 melanoma = tested on: M14 melanoma
TK-10 renal = tested on: TK-10 renal
CAKI-1 renal = tested on: CAKI-1 renal
MDA-MB-231 breast = tested on: MDA-MB-231 breast
SK-MEL-2 melanoma = tested on: SK-MEL-2 melanoma
SK-MEL-5 melanoma = tested on: SK-MEL-5 melanoma
HL-60(TB) leukemia = tested on: HL-60(TB) leukemia
MDA-MB-435 = tested on: MDA-MB-435
IGROV1 ovarian = tested on: IGROV1 ovarian
MCF7 breast = tested on: MCF7 breast
A549 NSCLC = tested on: A549 NSCLC

## CC1=C(C(=O)Nc2ccc(F)c(Cl)c2)C(c2ccccc2O)NC(=O)N1 (stereo not given)
SW-620 colon
  GI50: > 100 µM
  TGI: > 100 µM
RPMI-8226 leukemia
  GI50: 46.1 µM
  TGI: > 100 µM
OVCAR-4 ovarian
  GI50: 12.2 µM
  TGI: 68.6 µM
OVCAR-3 ovarian
  GI50: 65.4 µM
  TGI: > 100 µM
LOX IMVI melanoma
  GI50: 80.5 µM
  TGI: > 100 µM
OVCAR-5 ovarian
  GI50: > 100 µM
  TGI: > 100 µM
HCT-15 colon
  GI50: > 100 µM
  TGI: > 100 µM
A498 renal
  GI50: > 100 µM
  TGI: > 100 µM
HOP-92 NSCLC
  GI50: 81.6 µM
  TGI: > 100 µM
HCC-2998 colon
  GI50: > 100 µM
  TGI: > 100 µM
SF-295 CNS
  GI50: 94.5 µM
  TGI: > 100 µM
BT-549 breast
  GI50: 71.5 µM
  TGI: > 100 µM
NCI-H226 lung
  GI50: > 100 µM
  TGI: > 100 µM
UACC-62 melanoma
  GI50: 49 µM
  TGI: > 100 µM
786-0 renal
  GI50: > 100 µM
  TGI: > 100 µM
UO-31 renal
  GI50: 80.7 µM
  TGI: > 100 µM
NCI/ADR-RES ovarian
  GI50: > 100 µM
  TGI: > 100 µM
HCT-116 colon
  GI50: 51.7 µM
  TGI: > 100 µM
RXF 393 renal
  GI50: > 100 µM
  TGI: > 100 µM
SNB-19 CNS
  GI50: > 100 µM
  TGI: > 100 µM
KM12 colon
  GI50: 70.9 µM
  TGI: > 100 µM
SK-OV-3 ovarian
  GI50: > 100 µM
  TGI: > 100 µM
T-47D breast
  GI50: 42.4 µM
  TGI: > 100 µM
NCI-H460 lung
  GI50: 96.6 µM
  TGI: > 100 µM
PC-3 prostate
  GI50: 58.8 µM
  TGI: > 100 µM
SF-268 CNS
  GI50: > 100 µM
  TGI: > 100 µM
CCRF-CEM leukemia
  GI50: 59.9 µM
  TGI: > 100 µM
HOP-62 NSCLC
  GI50: > 100 µM
  TGI: > 100 µM
U251 CNS
  GI50: > 100 µM
  TGI: > 100 µM
ACHN renal
  GI50: > 100 µM
  TGI: > 100 µM
OVCAR-8 ovarian
  GI50: > 100 µM
  TGI: > 100 µM
COLO 205 colon
  GI50: > 100 µM
  TGI: > 100 µM
SF-539 CNS
  GI50: > 100 µM
  TGI: > 100 µM
DU-145 prostate
  GI50: > 100 µM
  TGI: > 100 µM
HS 578T breast
  GI50: 76.3 µM
  TGI: > 100 µM
HT29 colon
  GI50: 41.4 µM
  TGI: > 100 µM
UACC-257 melanoma
  GI50: > 100 µM
  TGI: > 100 µM
EKVX NSCLC
  GI50: > 100 µM
  TGI: > 100 µM
SN12C renal
  GI50: > 100 µM
  TGI: > 100 µM
SNB-75 CNS
  GI50: 40 µM
  TGI: > 100 µM
NCI-H522 lung
  GI50: 61.9 µM
  TGI: > 100 µM
K-562 leukemia
  GI50: 58.1 µM
  TGI: > 100 µM
NCI-H23 lung
  GI50: > 100 µM
  TGI: > 100 µM
SK-MEL-28 melanoma
  GI50: 79.7 µM
  TGI: > 100 µM
M14 melanoma
  GI50: 69.9 µM
  TGI: > 100 µM
TK-10 renal
  GI50: 32.4 µM
  TGI: 67.9 µM
CAKI-1 renal
  GI50: > 100 µM
  TGI: > 100 µM
MDA-MB-231 breast
  GI50: 27.4 µM
  TGI: > 100 µM
SK-MEL-2 melanoma
  GI50: > 100 µM
  TGI: > 100 µM
SK-MEL-5 melanoma
  GI50: 41.2 µM
  TGI: > 100 µM
HL-60(TB) leukemia
  GI50: 59.6 µM
  TGI: > 100 µM
MDA-MB-435
  GI50: > 100 µM
  TGI: > 100 µM
IGROV1 ovarian
  GI50: 50.2 µM
  TGI: > 100 µM
MCF7 breast
  GI50: 70.5 µM
  TGI: > 100 µM
A549 NSCLC
  GI50: > 100 µM
  TGI: > 100 µM
